What was measured:
Assay in all cases: Free drug in vitro cytotoxicity (resazurin)
Assay type in all cases: cell-based
786-O = system: 786-O
Description: (§1) Cells as detailed below were collected and plated in 96 well black-sided plates at a density of 10,000 cells/well in 150 μL of medium. […] Resazurin (0.25 mM, 50 μL, Sigma, St. Louis, Mo.) in medium was added and incubation was continued for 4 hours. The plates were read on a Fusion HT microplate reader (Packard, Meriden, Conn.) using an excitation wavelength of 525 nm and an emission wavelength of 590 nm. Data from all assays were reduced using GraphPad Prism Version 4 for Windows (GraphPad Software, San Diego, Calif.). The IC50 concentrations compared to untreated control cells were determined using a 4 parameter curve fits.

Caki-1 = system: Caki-1
Description: as §1

HL60 = system: HL60
Description: as §1

HEL9217 = system: HEL9217
Description: as §1

| Compound | IC50 (786-O; Homo sapiens, 786-0, following 48 hours treatment) [pM] | IC50 (Caki-1; Homo sapiens, CAKI-1, following 48 hours treatment) [pM] | IC50 (HL60; Homo sapiens, HL-60, following 48 hours treatment) [pM] | IC50 (HEL9217; Homo sapiens, HEL 92.1.7, following 48 hours treatment) [pM] | IC50 (786-O; following 48 hours treatment) [pM] | IC50 (Caki-1; following 48 hours treatment) [pM] | IC50 (HL60; following 48 hours treatment) [pM] | IC50 (HEL9217; following 48 hours treatment) [pM] |
| --- | --- | --- | --- | --- | --- | --- | --- | --- |
| COC(=O)c1ccc(C2=CN3C(=O)c4cc(OC)c(OCCCCCOc5cc6c(cc5OC)C(=O)N5C=C(c7ccc(N)cc7)C[C@H]5C=N6)cc4N=C[C@@H]3C2)cc1 [compound 4, (S)-2-(4-aminophenyl)-7-methoxy-8-(5-((S)-7-methoxy-2-(4-methyloxycarbonylphenyl)-5-oxo-5,11a-dihydro-1H-pyrrolo[2,1-c][1,4]benzodiazepin-8-yloxy)pentyloxy)-1H-pyrrolo[2,1-c][1,4]benzodiazepine-5(11aH)-one] | 50 | 20 | 8 | 8 |  |  |  |  |
| COc1cc2c(cc1OCCCOc1cc3c(cc1OC)C(=O)N1C=C(c4ccc(O)cc4)C[C@H]1C=N3)N=C[C@@H]1CC(c3ccc(N)cc3)=CN1C2=O [compound 14] |  |  |  |  | 200 | 400 | 30 | 50 |
